{"source": "patent US20100210597A1", "about": "“C21-Deoxy Ansamycin Derivatives as Antitumor Agents” (priority 2007, published 2010)", "key": {"[1]": {"test_system": "CNXF 498NL", "test": "Monolayer proliferation assay (modified propidium iodide), CNXF 498NL", "format": "cell-based, human", "details": "average of 2 experiments", "procedure": "(§1) In vitro evaluation of compounds for anticancer activity in a panel of human tumour cell lines in a monolayer proliferation assay was carried out at the Oncotest Testing Facility, Institute for Experimental Oncology, Oncotest GmbH, Freiburg.\n(§2) The Oncotest cell lines are established from human tumor xenografts as described by Roth et al., (1999). The origin of the donor xenografts is described by Fiebig et al., (1999). Other cell lines are either obtained from the NCl (DU145, MCF-7) or purchased from DSMZ, Braunschweig, Germany.\n(§3) All cell lines, unless otherwise specified, are grown at 37° C. in a humidified atmosphere (95% air, 5% CO2) in a ‘ready-mix’ medium containing RPMI 1640 medium, 10% fetal calf serum, and 0.1 mg/mL gentamicin (PAA, Cölbe, Germany).\n(§4) A modified propidium iodide assay was used to assess the effects of the test compound(s) on the growth of six human tumour cell lines (Dengler et al., (1995)).\nBriefly, cells are harvested from exponential phase cultures by trypsinization, counted and plated in 96 well flat-bottomed microtitre plates at a cell density dependent on the cell line (5-10.000 viable cells/well). After 24 h recovery to allow the cells to resume exponential growth, 0.010 mL of culture medium (6 control wells per plate) or culture medium containing macbecin were added to the wells. Each concentration is plated in triplicate. […] Following 4 days of continuous exposure, cell culture medium with or without test compound was replaced by 0.2 mL of an aqueous propidium iodide (P1) solution (7 mg/L). To measure the proportion of living cells, cells were permeabilized by freezing the plates. After thawing the plates, fluorescence was measured using the Cytofluor 4000 microplate reader (excitation 530 nm, emission 620 nm), giving a direct relationship to the total number of viable cells.\n(§5) Growth inhibition is expressed as treated/control×100 (% T/C).\n(§6) In vitro evaluation of the test compound, 20, for anticancer activity in a panel of human tumour cell lines in a monolayer proliferation assay was carried out as described in the general methods using a modified propidium iodide assay."}, "[2]": {"test_system": "DU145", "test": "Monolayer proliferation assay (modified propidium iodide), DU145", "format": "cell-based, human", "details": "average of 2 experiments", "procedure": "as §1, §2, §3, §4\nBriefly, cells are harvested from exponential phase cultures by trypsinization, counted and plated in 96 well flat-bottomed microtitre plates at a cell density dependent on the cell line (5-10.000 viable cells/well). After 24 h recovery to allow the cells to resume exponential growth, 0.010 mL of culture medium (6 control wells per plate) or culture medium containing macbecin were added to the wells. Each concentration is plated in triplicate. Compounds were applied in two concentrations (0.001 mM and 0.01 mM). Following 4 days of continuous exposure, cell culture medium with or without test compound was replaced by 0.2 mL of an aqueous propidium iodide (P1) solution (7 mg/L). To measure the proportion of living cells, cells were permeabilized by freezing the plates. After thawing the plates, fluorescence was measured using the Cytofluor 4000 microplate reader (excitation 530 nm, emission 620 nm), giving a direct relationship to the total number of viable cells.\nas §5, §6"}, "[3]": {"test_system": "panel of human tumour cell lines", "test": "Monolayer proliferation assay, mean across cell line panel", "format": "cell-based", "details": "geometric mean of all replicates across six cell lines", "procedure": "as §1, §2, §3, §4\nBriefly, cells are harvested from exponential phase cultures by trypsinization, counted and plated in 96 well flat-bottomed microtitre plates at a cell density dependent on the cell line (5-10.000 viable cells/well). […] After thawing the plates, fluorescence was measured using the Cytofluor 4000 microplate reader (excitation 530 nm, emission 620 nm), giving a direct relationship to the total number of viable cells.\nGrowth inhibition is expressed as treated/control×100 (% T/C). […]"}}, "data": [{"smiles": "CO[C@H]1C[C@H](C)Cc2cc(cc(OP(=O)(O)O)c2)NC(=O)/C(C)=C/CC[C@H](C)[C@@H](OC(N)=O)/C(C)=C/[C@H](C)[C@H]1O", "note": "[Compound 20, 4,5-dihydro-11-O-demethyl-15-demethoxy-18,21-didehydro-21-deoxomacbecin-18-phosphate]", "values": [{"measurement": "Test/Control (%) at drug concentration (μg/mL)", "setting": "[1]; 0.01 μg/mL", "result": 99, "unit": "%"}, {"measurement": "Test/Control (%) at drug concentration (μg/mL)", "setting": "[1]; 0.1 μg/mL", "result": 77, "unit": "%"}, {"measurement": "Test/Control (%) at drug concentration (μg/mL)", "setting": "[1]; 1 μg/mL", "result": 15, "unit": "%"}, {"measurement": "Test/Control (%) at drug concentration (μg/mL)", "setting": "[1]; 10 μg/mL", "result": 16, "unit": "%"}, {"measurement": "Test/Control (%) at drug concentration (μg/mL)", "setting": "[1]; 100 μg/mL", "result": 12, "unit": "%"}, {"measurement": "Test/Control (%) at drug concentration (μg/mL)", "setting": "[2]; DU145, 0.01 μg/mL", "result": 99, "unit": "%"}, {"measurement": "Test/Control (%) at drug concentration (μg/mL)", "setting": "[2]; DU145, 0.1 μg/mL", "result": 53, "unit": "%"}, {"measurement": "Test/Control (%) at drug concentration (μg/mL)", "setting": "[2]; DU145, 1 μg/mL", "result": 8, "unit": "%"}, {"measurement": "Test/Control (%) at drug concentration (μg/mL)", "setting": "[2]; DU145, 10 μg/mL", "result": 9, "unit": "%"}, {"measurement": "Test/Control (%) at drug concentration (μg/mL)", "setting": "[2]; DU145, 100 μg/mL", "result": 3, "unit": "%"}, {"measurement": "average IC70 value across the cell-line panel", "setting": "[3]", "result": 0.344, "unit": "mg/L"}]}]}
